Source: publication PMC6400287 (Cell reports, 2018)

Target: T1, REV-ERBα (Homo sapiens, UniProt P20393)
T1 sequence (P20393 1-614): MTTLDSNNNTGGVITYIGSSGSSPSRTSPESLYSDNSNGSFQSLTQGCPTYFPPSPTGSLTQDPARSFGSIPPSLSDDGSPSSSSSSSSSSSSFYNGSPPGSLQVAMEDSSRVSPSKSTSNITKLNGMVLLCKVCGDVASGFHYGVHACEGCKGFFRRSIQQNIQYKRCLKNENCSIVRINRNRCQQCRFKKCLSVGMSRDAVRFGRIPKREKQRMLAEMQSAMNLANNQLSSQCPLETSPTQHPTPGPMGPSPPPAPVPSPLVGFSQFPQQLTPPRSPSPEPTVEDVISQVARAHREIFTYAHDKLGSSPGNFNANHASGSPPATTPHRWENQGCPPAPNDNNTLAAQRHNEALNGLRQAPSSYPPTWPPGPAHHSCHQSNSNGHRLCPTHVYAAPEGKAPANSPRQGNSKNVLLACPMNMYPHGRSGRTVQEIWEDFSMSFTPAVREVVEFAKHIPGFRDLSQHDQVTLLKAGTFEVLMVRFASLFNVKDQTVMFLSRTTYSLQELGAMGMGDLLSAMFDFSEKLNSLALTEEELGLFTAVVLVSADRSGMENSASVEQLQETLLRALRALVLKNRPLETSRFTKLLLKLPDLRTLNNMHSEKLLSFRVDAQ
Test: cotransfection Il17a+CNS5 luciferase reporter assay in HEK293 cells
Format: cell-based

CCOC(=O)N1CCC(CN(Cc2ccc(Cl)cc2)Cc2ccc([N+](=O)[O-])s2)C1 (stereo not shown) [SR9009]
cotransfection Il17a+CNS5 luciferase reporter assay in HEK293 cells: Both SR9009 and SR12418 dose-dependently inhibited Il17a lucif-erase activity at REV-ERBα and REV-ERBβ
